Data: patent publication US7037644B1, “Means and methods for monitoring non-nucleoside reverse transcriptase inhibitor antiretroviral therapy and guiding therapeutic decisions in the treatment of HIV/AIDS” (ViroLogic, Inc., priority 1998, dated 2006)
“And” between values parts separate entries of the source, which are not always exact repeats. Equal values may be shown once. “Also recorded” adds a separate entry of the source.

Experiments:
Assay in all cases: Phenotypic susceptibility assay (site directed mutant RTV)
Format in all cases: cell-based, HIV-1
G190S-RTV = conditions: for change in susceptibility (fold, IC50) vs wild type control RTV: G190S alone, below 1 = increased susceptibility; for change in susceptibility: serine at position 190, no other NNRTI mutations
From the text: (§1) The resistance test vectors containing a functional luciferase gene cassette were constructed and host cells were transfected with the resistance test vector DNA. The resistant test vectors contained patient-derived reverse transcriptase and protease sequences that were either susceptible or resistant to the antiretroviral agents, such as nucleoside reverse transcriptase inhibitors, non-nucleoside reverse transcriptase inhibitors and protease inhibitors. The resistance test vector viral particles produced by transfecting the resistance test vector DNA into host cells, either in the presence or absence of protease inhibitors, were used to infect target host cells grown either in the absence of NRTI or NNRTI or in the presence of increasing concentrations of the drug. The amount of luciferase activity produced in infected target host cells in the presence of drug was compared to the amount of luciferase produced in infected target host cells in the absence of drug. Drug resistance was measured as the amount of drug required to inhibit by 50% the luciferase activity detected in the absence of drug (inhibitory concentration 50%, IC50). The IC50 values were determined by plotting percent drug inhibition vs. log10 drug concentration.
(§2) Host cells were seeded in 10-cm-diameter dishes and were transfected several days after plating with resistance test vector plasmid DNA and the envelope expression vector. Transfections were performed using a calcium-phosphate precipitation procedure. The cell culture media containing the DNA precipitate was replaced with fresh medium, from one to 24 hours, after transfection. Cell culture media containing resistance test vector viral particles was harvested one to four days after transfection and was passed through a […] filter before being stored at […]. HIV capsid protein (p24) levels in the harvested cell culture media were determined by an EIA method as described by the manufacturer (SIAC; Frederick, Md.). Before infection, target cells (293 and 293/T) were plated in cell culture media. Control infections were performed using cell culture media from mock transfections (no DNA) or transfections containing the resistance test vector plasmid DNA without the envelope expression plasmid. One to three or more days after infection the media was removed and cell lysis buffer (Promega) was added to each well. Cell lysates were assayed for luciferase activity (FIG. 3). The inhibitory effect of the drug was determined using the following equation: % luciferase inhibition=1−(RLUluc [drug]÷RLUluc)×100 where RLUluc [drug] is the relative light unit of luciferase activity in infected cells in the presence of drug and RLUluc is the Relative Light Unit of luciferase activity in infected cells in the absence of drug. IC50 values were obtained from the sigmoidal curves that were generated from the data by plotting the percent inhibition of luciferase activity vs. the log10 drug concentration. The drug inhibition curves are shown in (FIG. 3).
Resistance test vectors were constructed containing the G190S and G190A mutations. Mutations were introduced into the resistance test vector using the mega-primer PCR method for site-directed mutagenesis (Sakar and Sommar, Ibid.) Resistance test vectors containing the G190S or G190A mutations (G190S-RTV, or G190A-RTV) were tested using the phenotypic susceptibility assay and the results were compared to that of a genetically defined resistance test vector that was wild type at position G190. […]

Y188L-RTV = conditions: for loss of susceptibility (fold, IC50) vs wild type control RTV: Y188L alone; for change in susceptibility: mutation at codon 188
From the text: as §1, §2
The Y188L mutation was introduced into the resistance test vector using the mega-primer method for site-directed mutagenesis (Sakar and Sommar, Ibid.). A resistance test vector containing the Y188L mutation (Y188L-RTV) was then tested using the phenotypic assay described earlier and the results were compared to those determined using a genetically defined resistance test vector that was wild type at position 188. We determined the pattern of phenotypic susceptibility to the NNRTIs, delavirdine, nevirapine and efavirenz, in the Y188L-RTV. […] The approximate 100-fold loss of susceptibility to efavirenz was not as high as had been previously reported.

A98G-RTV = conditions: for loss of susceptibility (fold, IC50) vs wild type control RTV: A98G alone; for change in susceptibility: mutation at codon 98
From the text: as §1, §2
The A98G mutation into the resistance test vector using the mega-primer method for site-directed mutagenesis (Sakar and Sommar, Ibid.). A resistance test vector containing the A98G mutation (A98G-RTV) was then tested using the phenotypic assay described earlier and the results were compared to those determined using a genetically defined resistance test vector that was wild type at position 98. We determined the pattern of phenotypic susceptibility to the NNRTIs, delavirdine, nevirapine and efavirenz, in the A98G-RTV.

Y181C-A98G-RTV = conditions: for loss of susceptibility (fold, IC50) vs wild type control RTV: Y181C and A98G; for change in susceptibility: mutations at codons 181 and 98
From the text: as §1, §2
The Y181C and A98G mutations were introduced alone and in combination into resistance test vectors using the mega-primer method for site-directed mutagenesis (Sakar and Sommar, Ibid.). Resistance test vectors containing the Y181C mutation (Y181C-RTV) and the A98G mutation (A98G-RTV) and both mutations (Y181C-A98G-RTV) were then tested using the phenotypic assay described earlier and the results were compared to those determined using a genetically defined resistance test vector that was wild type at position 181 and 98. We determined the pattern of phenotypic susceptibility to the NNRTIs, delavirdine, neviraphine and efavirenz, in the three vectors.

F227L-RTV = conditions: F227L alone; below 1 = increased susceptibility
From the text: as §1, §2
(§3) The mutations V106A, V189L, V181C an F227L were introduced alone and in combination into resistance test vectors using the mega-primer method for site-directed mutagenesis (Sakar and Sommar, Ibid.). Resistance test vectors containing the V106A mutation (V106A-RTV), the V189L mutation (V189L-RTV), the V181C mutation (V181C-RTV) and E227L mutation (F2271-RTV) and two mutations (V106A-Y181C-RTV) and (V106A-V189L-RTV) and (V106A-F227-RTV) and (V181C-F227-RTV) and three mutations, (V106A-Y181C-F227L-RTV) were then tested using the phenotypic assay described earlier and the results were compared to those determined using a genetically defined resistance test vector that was wild type at positions 106, 189, 181 and 227. We determined the pattern of phenotypic susceptibility to the NNRTIs, delavirdine, nevirapine and efavirenz, in all nine vectors.

V189L-RTV = conditions: V189L alone
From the text: as §1, §2, §3

Y181C-F227L-RTV = conditions: for change in susceptibility (fold, IC50) vs wild type control RTV: Y181C and F227L, below 1 = increased susceptibility; for change in susceptibility: mutations at 181 and 227
From the text: as §1, §2, §3

Row | SMILES | change in susceptibility (fold, IC50) vs wild type control RTV (G190S-RTV) | change in susceptibility (G190S-RTV) | loss of susceptibility (fold, IC50) vs wild type control RTV (Y188L-RTV) | change in susceptibility (Y188L-RTV) | loss of susceptibility (fold, IC50) vs wild type control RTV (A98G-RTV) [fold] | change in susceptibility (A98G-RTV) | loss of susceptibility (fold, IC50) vs wild type control RTV (Y181C-A98G-RTV) | change in susceptibility (Y181C-A98G-RTV) | change in susceptibility (fold, IC50) vs wild type control RTV (F227L-RTV) | change in susceptibility (fold, IC50) vs wild type control RTV (V189L-RTV) [fold] | change in susceptibility (fold, IC50) vs wild type control RTV (Y181C-F227L-RTV) [fold] | change in susceptibility (Y181C-F227L-RTV)
1 | Cc1ccnc2c1NC(=O)c1cccnc1N2C1CC1 [nevirapine] | 75 fold | decrease | greater than 800 fold | substantial decrease | 8 | slight decrease | greater than 800 fold | substantial decrease | 3 fold | 1.3 | 285 | significant decrease
2 | O=C1Nc2ccc(Cl)cc2[C@@](C#CC2CC2)(C(F)(F)F)O1 [efavirenz] | 8 fold and 7.6 fold |  | 109 fold and ~100 fold and 110 fold | significant decrease | 3 | slight decrease | 7 fold | substantial decrease; also recorded: slight decrease | 0.48 fold and 0.4 fold | 1.3 | 0.99 | increase
3 | CC(C)Nc1cccnc1N1CCN(C(=O)c2cc3cc(NS(C)(=O)=O)ccc3[nH]2)CC1 [delavirdine] | 0.5 fold | increase | 9 fold | slight decrease | 3 | slight decrease | 240 fold | significant decrease | 0.03 fold | 1.8 | 0.89 | increase
